Experiments:
[1] = biological target: T1, Glutamate receptor ionotropic, AMPA (Rattus norvegicus, UniProt P19490+P19491+P19492+P19493); assay: Inhibition of [3H]AMPA binding to Ionotropic glutamate receptor from rat whole brain.
[2] = organism: Rattus norvegicus; assay: The compound was tested for anti-KA-Induced Neurotoxicity in rat primary hippocampal cultures.; format: functional; details: Hippocampus
[3] = biological target: Glutamate NMDA receptor; assay: The compound was tested for its ability to inhibit [3H]Gly binding to N-methyl-D-aspartate glutamate receptor from rat whole brain.
[4] = biological target: Glutamate NMDA receptor; assay: The compound was tested for its ability to inhibit [3H]Glu binding to N-methyl-D-aspartate glutamate receptor from rat whole brain.
[5] = biological target: T1, Glutamate receptor ionotropic, AMPA; assay: The compound was tested for its ability to inhibit [3H]AMPA binding to Ionotropic glutamate receptor AMPA from rat whole brain
[6] = biological target: Glutamate NMDA receptor; assay: The compound was tested for its ability to inhibit [3H]Gly binding to N-methyl-D-aspartate glutamate receptor from rat whole brain
[7] = organism: Rattus norvegicus; assay: The compound was tested for anti-KA-Induced Neurotoxicity in rat primary hippocampal cultures; format: functional; details: Hippocampus

Structure (SMILES)	Ki [1] [nM]	other results
Oc1nc2cc(C(F)(F)F)c(-n3ccnc3)cc2n2ccnc12	66	IC50 [2]: 320 nM
Cc1nccn1-c1cc2nc(O)c(O)nc2cc1[N+](=O)[O-]	390	
CCc1cnc2c(O)nc3cc([N+](=O)[O-])c(-n4ccnc4)cc3n12	20	
CCc1nnc2c(O)nc3cc([N+](=O)[O-])c(-n4ccnc4)cc3n12	48	
CCC1CN=C2C(=O)Nc3cc([N+](=O)[O-])c(-n4ccnc4)cc3N21 (configuration not stated)	150	
CCCc1nnc2c(O)nc3cc([N+](=O)[O-])c(-n4ccnc4)cc3n12		Ki [5]: 99 nM
CCCCc1nnc2c(O)nc3cc([N+](=O)[O-])c(-n4ccnc4)cc3n12		Ki [5]: 70 nM
O=c1[nH]c2cc([N+](=O)[O-])c(-n3ccnc3)cc2n(O)c1=O		Ki [6]: 4200 nM; IC50 [7]: 310 nM
Cc1nccn1-c1cc2c(cc1[N+](=O)[O-])nc(O)c1ncc(C)n12	> 10000	
NS(=O)(=O)c1cccc2c1c([N+](=O)[O-])cc1nc(O)c(O)nc12 [NBQX]		IC50 [2]: 380 nM
O=c1[nH]c2cc(-n3ccnc3)c([N+](=O)[O-])cc2[nH]c1=O [YM-90K]		IC50 [2]: 810 nM

The next lines start with results.

Ki [1] [nM]	Structure (SMILES)	other results
96	Cc1nnc2c(O)nc3cc([N+](=O)[O-])c(-n4ccnc4)cc3n12	
> 100000	O=C1Nc2cc(-n3ccnc3)c([N+](=O)[O-])cc2C1=O	
57	O=[N+]([O-])c1cc2nc(O)c3nccn3c2cc1-n1ccnc1	IC50 [2]: 300 nM; Ki [3]: > 300000 nM; Ki [4]: > 300000 nM
6600	CCCc1nnc2c(O)nc3cc(-n4ccnc4)c([N+](=O)[O-])cc3n12	
130	CCCn1c(=O)c(=O)[nH]c2cc([N+](=O)[O-])c(-n3ccnc3)cc21	
190	O=[N+]([O-])c1cc2nc(O)c3nncn3c2cc1-n1ccnc1	

From ChEMBL document CHEMBL1130419, “8-(1H-imidazol-1-yl)-7-nitro-4(5H)-imidazo[1,2-alpha]quinoxalinone and related compounds: synthesis and structure-activity relationships for the AMPA-type non-NMDA receptor” (J Med Chem, 1997)
